Results taken from patent publication US5871779A, “Treatment of arthropathies with vanadate compounds or analogues thereof” (Mount Sinai Hospital Corporation, priority 1996, dated 1999).

Test system: articular cartilage
Assay: electron microscopy of articular cartilage of arthritic rats
Assay type: in vivo, rat
Protocol: The synovium of rats from each group was examined by electron microscopy. Rats in each group were selected on Day 5 and Day 18 post arthritis onset to study joint morphology. Scanning and Transmission electron microscopy was performed on selected glutaraldehyde fixed joints. One ankle joint of each arthritic control and BMOV-treated rat was removed, critical point dried, and gold sputter-coated for scanning electron microscopy on Day 18 post arthritis onset to examine the trochlear surfaces. Conventional transmission electron microscopy was also performed on the articular cartilage of the trochlear surfaces of naive, arthritic control, and BMOV-treated animals using a Jeol 1200EX.

## Cc1occc(=O)c1[O-].Cc1occc(=O)c1[O-].[O]=[V+2] [BMOV, bis(methylmaltolato) oxovanadium (IV)]
Day 18
  trochlear surface by scanning electron micrograph: normal trochlear surface
rat, in vivo
  articular cartilage by transmission electron micrograph: indistinguishable from the naive animal
Scanning and transmission electron micrographs
  cartilage damage of joints: little cartilage damage and intact cartilage
